One assay deals with T1, α1B adrenoceptors (Rattus norvegicus, UniProt P15823).
T1 construct: from tissue; host or cells: rat liver membranes
T1 sequence (P15823 1-515): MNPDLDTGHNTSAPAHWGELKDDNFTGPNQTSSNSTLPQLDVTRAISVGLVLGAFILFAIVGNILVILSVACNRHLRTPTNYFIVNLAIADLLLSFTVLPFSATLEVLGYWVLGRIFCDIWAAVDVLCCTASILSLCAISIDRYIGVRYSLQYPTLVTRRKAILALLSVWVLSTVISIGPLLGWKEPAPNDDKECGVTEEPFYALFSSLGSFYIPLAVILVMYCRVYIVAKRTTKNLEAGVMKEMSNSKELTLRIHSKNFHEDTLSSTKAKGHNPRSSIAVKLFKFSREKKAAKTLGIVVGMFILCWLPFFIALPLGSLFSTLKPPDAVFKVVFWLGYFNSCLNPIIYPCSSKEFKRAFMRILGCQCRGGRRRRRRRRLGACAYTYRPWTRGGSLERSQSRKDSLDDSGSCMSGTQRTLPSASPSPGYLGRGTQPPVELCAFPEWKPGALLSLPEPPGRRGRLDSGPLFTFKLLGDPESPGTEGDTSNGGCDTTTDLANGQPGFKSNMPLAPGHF
Description: Binding of [3H]-prazosin to α1B adrenoceptors (rat liver membranes). As to the method:
Following the protocol described previously in the literature membrane preparations from rat liver homogenates were obtained. Such membrane preparations are enriched in the adrenoceptor subtype α1B. The tissues obtained as described above (4 Rat livers corresponding to ˜30 g) were thawed and homogenized perforated similarly performed for rabbit liver. The homogenate obtained was filtered through four layers of gauze and then subjected to centrifugation 5,000×g for 20 minutes at 4° C., yielding a supernatant which was subsequently ultracentrifuged at 100,000×g for 60 minutes at 4° C., obtaining a pellet. This pellet was resuspended in buffer free of NaCl and subjected to a further […] under the same conditions.
Binding assays were standardized for α1B adrenoceptors in the same way adrenoceptor binding assays for α1A according to the literature, i.e. saturation and competition assays were performed on membrane preparations from rat liver, in this case using […] protein per tube contained […] suspension, in addition to various concentrations of LDT's (10^−9-10^−6 M).

A further assay concerns the target T2, 5-HT1A receptors (Rattus norvegicus, UniProt P19327).
T2 construct: Intrinsic Activity at Native 5-HT1A Receptors; from tissue; host or cells: rat hippocampus membranes
T2 sequence (P19327 1-422): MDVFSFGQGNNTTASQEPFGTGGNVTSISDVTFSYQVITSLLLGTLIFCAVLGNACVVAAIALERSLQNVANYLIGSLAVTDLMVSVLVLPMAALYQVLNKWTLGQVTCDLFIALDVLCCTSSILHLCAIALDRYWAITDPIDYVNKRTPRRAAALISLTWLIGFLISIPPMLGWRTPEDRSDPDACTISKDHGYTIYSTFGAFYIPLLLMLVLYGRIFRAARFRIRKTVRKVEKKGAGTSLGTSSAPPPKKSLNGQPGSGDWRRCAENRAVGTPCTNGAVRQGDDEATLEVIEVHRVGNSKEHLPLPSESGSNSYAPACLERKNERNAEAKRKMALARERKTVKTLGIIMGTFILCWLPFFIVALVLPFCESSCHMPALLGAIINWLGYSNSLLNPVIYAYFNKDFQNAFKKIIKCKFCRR
Description: Binding of [3H]-8-OH-DPAT to 5-HT1A receptors (rat hippocampus membranes). As to the method: Membrane preparations of rat hippocampus according to previously described by HALL et al (1985) and PEROUTKA (1986) were performed. The homogenization and centrifugation steps were performed identically to that described above for receptors α2A and 5-HT2A receptors.
The binding assays for the 5-HT1A receptors were performed as described previously in the literature and previously standardized in the laboratory through saturation experiments. […] (solvent for dilution of LDT's) for the determination of total binding, or 50 μL non-radioative serotonin at 10 μM to determine the non-specific binding (final volume of 500 μL). Assays were performed in triplicate. […] Assays were performed in triplicate.
(§1) After the incubation period, the reaction was stopped by adding 4 ml of ice-cold solution containing 5 mM Tris (pH 7.4), followed by vacuum filtration on glass fiber filter (GMF 3, Filtrak®) previously soaked with solution 0.5% polyethylenoimine. The filters were washed three times with 4 mL of ice-cold solution containing 5 mM Tris (pH 7.4) under vacuum to remove all free radioligand. Then the filters were dried and placed in vials containing 5 ml scintillation fluid (composition: 4% PPO, 0.1% POPOP w/p in toluene). The radioactivity retained on the filters was then determined in a liquid scintillation counter (Packard Tri-Carb 1600 TR). […] For these receptors were also determined the LC50 and Ki parameters.

The next assay has as its target T3, 5-HT2A receptors (Rattus norvegicus, UniProt P14842).
T3 construct: from tissue; host or cells: rat cortex membranes
Briefly: [3H]-ketanserin binding to 5-HT2A receptors (rat cortex membranes). The protocol:
Membrane preparations of rat cortex as described previously in the literature were performed. The organs were homogenized in a Potter with the aid of a motor unit (Fisatom) and Teflon piston in the proportion of 20 parts of 50 mM Tris HCl (pH 7.4 at 4° C.) for one piece of material, three times for 30 seconds each time, at intervals the solution was allowed to stand on ice for 1 minute.
Then it was performed a centrifugation at 900×g for 10 minutes at 4° C. It was obtained a […] which was resuspended in solution cold 50 mM Tris-HCl (pH 7.4) and the same procedure was performed once more. The supernatant was then centrifuged at 48,000×g for 10 minutes at 4° C. yielding a pellet which was resuspended at a ratio of 20 parts of 50 mM Tris HCl (pH 7.4 at 4° C.) for one piece of material, and incubated at 37° C. for 10 minutes in order to remove the endogenous neurotransmitters. Finally, centrifugation two times more at 48,000×g was performed for 10 minutes at 4° C., and then the final pellet was resuspended in a solution of 50 mM Tris-HCl (pH 7.4).
The binding assays for 5-HT2A receptors were performed as described in the literature. […] (solvent for dilution of the LDT's), to determine the total binding, or 50 μL non-radioactive ketanserin at 10 μM for the determination of nonspecific binding (final volume of 500 μL). Assays were performed in triplicate.
as §1, with “polyethylenoimine” for “polyethylenoimine.”, “(4%” for “(composition: 4%”, “w/v” for “w/p”, “To” for “For”, “CI50” for “the LC50”

T3 sequence (P14842 whole entry): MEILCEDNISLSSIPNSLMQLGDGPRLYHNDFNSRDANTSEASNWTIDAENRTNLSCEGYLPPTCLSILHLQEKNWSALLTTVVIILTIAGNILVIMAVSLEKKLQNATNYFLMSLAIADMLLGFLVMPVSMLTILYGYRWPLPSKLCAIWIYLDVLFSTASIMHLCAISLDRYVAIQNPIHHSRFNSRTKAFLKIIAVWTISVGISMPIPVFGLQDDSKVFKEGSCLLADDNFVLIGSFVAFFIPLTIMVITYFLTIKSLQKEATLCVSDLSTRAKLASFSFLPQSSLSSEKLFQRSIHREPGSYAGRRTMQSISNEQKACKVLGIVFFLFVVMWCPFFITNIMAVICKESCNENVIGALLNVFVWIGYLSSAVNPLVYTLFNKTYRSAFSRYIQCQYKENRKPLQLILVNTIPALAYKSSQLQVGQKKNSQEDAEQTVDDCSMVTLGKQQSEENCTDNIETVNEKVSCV

Take `COc1ccc(CCN2CCN(c3ccccc3OC)CC2)cc1` [LDT 4]: the IC50 (in general, the concentration that gives 50% inhibition) on α1B adrenoceptors is 30.2 nM; on 5-HT1A receptors it was 2.4 nM; at 5-HT2A receptors, 69.2 nM. Moreover, the Ki – broadly, a measure of affinity in units of concentration, obtained from inhibition or displacement – at α1B adrenoceptors came out at 23.3 nM; at 5-HT1A receptors (KI (M), Table 7, Cheng-Prusoff), 9.88e-10 M; on 5-HT2A receptors it was 44.2 nM.

For the origin of these results see patent publication US20150011566A1, “N-PHENYLPIPERAZINE DERIVATIVES THAT ARE ANTAGONISTS OF A1A, A1D ADRENOCEPTORS AND 5-HT1A RECEPTORS FOR THE TREATMENT OF BENIGN PROSTATE HYPERPLASIA, PHARMACEUTICAL COMPOSITIONS CONTAINING THE SAME” (UNIVERSIDADE FEDERAL DO RIO DE JANEIRO-UFRJ, priority 2012, published 2015).
